Measured values from patent US20060008891A1, “Cathepsin G-related peptides as modulators of formylpeptide receptors (FPR)” (The Government of USA as repersented by the Secretary, …, priority 2004, published 2006).
Entries after “also recorded” stand apart in the source; their conditions may differ.

Legend:
neutrophils = assay: Calcium flux (Fura-2), neutrophils; type: cell-based, human
FPR [1] = molecular target: T1, FPR (Homo sapiens, UniProt P21462); assay: Calcium flux (Fura-2), ETFR cells; type: cell-based; conditions: CaG 10 μg/ml
T1 construct: expressed in transfected cells; host or cells: Rat basophilic leukemia (RBL) cells, stably transfected (ETFR cells); gift of H. Ali and R. Snyderman, Duke University
T1 sequence (P21462 1-350): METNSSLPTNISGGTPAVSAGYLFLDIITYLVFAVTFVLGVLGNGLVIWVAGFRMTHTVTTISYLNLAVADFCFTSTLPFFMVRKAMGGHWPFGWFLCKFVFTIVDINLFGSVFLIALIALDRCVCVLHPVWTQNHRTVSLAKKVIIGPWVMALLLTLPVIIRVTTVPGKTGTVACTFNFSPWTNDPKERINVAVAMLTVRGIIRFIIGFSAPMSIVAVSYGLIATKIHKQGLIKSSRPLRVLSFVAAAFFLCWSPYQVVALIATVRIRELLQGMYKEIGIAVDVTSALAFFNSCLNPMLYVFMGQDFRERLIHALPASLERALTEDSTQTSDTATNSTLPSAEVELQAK
Description: Monocytes or ETFR cells (10^7 cells/ml in RPMI 1640 containing 10% FBS) were loaded with 5 μM Fura-2 at room temperature (30 min for monocytes, 60 min for ETFR cells) in the dark. The cells were washed and resuspended (0.5×10^6 cells/ml) in saline buffer (138 mM NaCl, 6 mM KCl, 1 mM CaCl2, 10 mM HEPES, 5 mM glucose, and 1% BSA, pH 7.4). Two milliliters of the cell suspension were transferred to a quartz cuvette, which was placed in a luminescence spectrometer LS55 (Perkin-Elmer, Beaconsfield, UK). Calcium mobilization was measured by recording the ratio of the fluorescence excited at 340 and 380 nm in response to stimulants.

FPR [2] = molecular target: T1, FPR; assay: 3[H]-fMLF binding competition on monocytes and ETFR cells; conditions: 3 nM 3[H]-fMLF
Source text: The cells were then filtered onto Whatman paper discs, which were air-dried and measured for […].

Akt = assay: Phosphorylation of Akt in ETFR cells (Western blot); type: cell-based, rat
Description: ETFR cells were plated in Petri dishes and cultured in DMEM at 37° C. in humidified 5% CO2 atmosphere for 48 h. After further culture in serum-free DMEM overnight, the cells were treated with stimulants for indicated time periods. The reaction was stopped by adding 1 ml ice-cold PBS, and the cells were lysed in 1×SDS lysis buffer (62.5 mM Tris-HCl, 2% w/v SDS, 10% glycerol, 50 mM DTT, pH 6.8) and harvested into tubes for sonication. Proteins (50 μg for each sample) were resolved by SDS-PAGE and transferred onto nitrocellulose membranes (Bio-Rad, Hercules, Calif.). The membranes were blocked for 2 h at room temperature in 3% non-fat milk prepared in Tris-buffered saline-T (10 mM Tris-HCl, pH 7.5, 150 mM NaCl, 0.1% Tween 20) and probed with anti-p-ERK1/2, p-p38 MAPK, or p-Akt (1:1000) at room temperature for 1-2 h or at 4° C. overnight. The membranes were then washed and incubated with horseradish peroxidase-conjugated secondary antibodies diluted in Tris-buffered saline-T for 1 h at room temperature. The immune complexes on the membranes were visualized using ECL reagents. Total ERK1/2, p38 MAPK, and Akt were visualized by stripping the same membrane and probing with antibodies against total ERK1/2, p38 MAPK, and Akt.

PKC isozymes = assay: PKC translocation in parental RBL cells; type: cell-based, rat; conditions: 100 nM fMLF, 10 μg/ml CaG or PMA 500 nM, 37° C. 10 min
FPR [3] = molecular target: T1, FPR; assay: Chemotaxis of HEK293 cells transfected with FPR; type: cell-based; conditions: chemotaxis index
Description: Human PBMC were isolated from leukopacks obtained through the courtesy of Transfusion Medicine Department, National Institutes of Health Clinical Center (Bethesda, Md.) by Ficoll-Hypaque density gradient centrifugation. Monocytes were purified from human PBMC by Percoll gradient to yield>90% pure preparations. […] H. Ali and R. Snyderman, Duke University (Durham, N.C.) and maintained in the presence of 0.8 mg/ml geneticin (G418, Life Technologies, Rockville, Md.) in DMEM supplemented with 10% FCS. B. Chemotaxis assay Migration of phagocytes and ETFR cells was assessed using a 48-well microchemotaxis chamber (Neuroprobe, Cabin John, Md.) as previously described (Hu et al. (2001) J Leukoc Biol 70 15512). […] After incubation at 37° C. in humidified air with 5% CO2 (60 min for neutrophils, 90 min for monocytes, 4.5 h for ETFR cells), the filter was removed and stained, and the cells migrating across the filter were counted with light microscopy. […]
The chimeric receptor was stably transfected into HEK293 cells (a human embryo kidney cell line) and the chemotactic activity of CaG on the transfected cells was measured and compared to the chemotactic activity of CaG on […] cells transfected with wild type FPR, using the assay for chemotaxis described in Example IB. […]

IC50, displacement of 3[H]-fMLF binding (FPR [2]): 2.5 µg/mL
Substance: CaG: Cathepsin G, serine protease purified from neutrophil granules, purchased from Athens Research & Technology
Ca2+ flux (neutrophils; CaG 10 μg/ml): failed to induce significant Ca^2+ flux | attenuation of Ca2+ response to fMLF (neutrophils; CaG 10 μg/ml, 0.1 nM fMLF): attenuated cell response induced by low concentrations of fMLF; also recorded: significantly attenuated cell response to 0.1 nM fMLF | Ca2+ mobilizing activity (neutrophils; concentrations up to 20 μg/ml (800 nM)): lacked significant Ca^2+ mobilizing activity | Ca2+ flux (FPR [1]): weak inducer of Ca^2+ flux; also recorded: induced a measurable level of Ca flux | attenuation of Ca2+ response to fMLF (FPR [1]; 0.1 nM fMLF): attenuated cell response induced by low concentrations of fMLF; also recorded: significantly attenuated cell response to 0.1 nM fMLF | time to activation of Akt (Akt): 1 to 5 min | PKC translocation in parental RBL cells (PKC isozymes): Neither CaG nor fMLF stimulated PKC translocation in parental RBL cells | chemotactic activity on FPR-transfected HEK293 cells (FPR [3]): chemotacic for FPR-transfected HEK 293 cells
